Data from the METLIN SMRT retention time set (Domingo-Almenara et al. 2019).

Experiment: gradient 5% acetonitrile 3 min, to 50% in 2 min, to 85% in 15 min, held 3 min, 100 µL/min
Details: column: Zorbax Extend-C18 2.1 x 50 mm; eluents: water / acetonitrile, 0.1% formic acid
Procedure, shortened: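 Retention times come from adduct peaks that were picked computationally and then checked by hand. The standards, pure and pooled in mixtures of ~100 molecules, were run on a Zorbax Extend-C18 column (2.1 × 50 mm, 1.8 μm) at 100 μL/min with water and acetonitrile, each with 0.1% formic acid. Detection was by quadrupole time-of-flight mass spectrometry in positive and negative ionization mode, with a dead volume of 40 μL and a dwell volume of 900 μL.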

| Compound | RP-LC retention time [s] |
| --- | --- |
| COc1ccc(C(=O)N2CCc3cc(-c4csc(C)n4)ccc32)cc1OC | 862 |
| Cc1ccc(S(=O)(=O)NCCn2c(C)cnc2C2CCC2)cc1F | 637 |
| Cc1cc(-c2nnc(-c3ccco3)o2)c(C)n1CC(=O)NCc1ccc(Cl)cc1 | 637 |
| CCCNc1cc(N2CCC(CCC(=O)NCc3cccc(F)c3)CC2)ncn1 | 696 |
| COCc1c(C(=O)O)nnn1-c1ccccc1F | 670 |
| CC(=O)N1CCC2(CC1)CC(CC(=O)O)CCO2 (stereo unspecified) | 588 |
| COc1ccc(CNC(=O)c2cc3sccc3n2C)cc1 | 894 |
| Nc1cc(C2CCN(C(=O)Nc3ccccc3Cl)CC2)no1 | 698 |
| COc1ccc2c(c1)C=C(C(=O)NCC(=O)c1cccs1)C=CO2 | 879 |
| Cc1csc(-c2cc(S(=O)(=O)Nc3cc(F)ccc3F)cn2CC(=O)N2CCCC2)n1 | 874 |
| NC(N)=Nc1nc2ccc([N+](=O)[O-])cc2[nH]1 | 651 |
| CCN(Cc1ccncc1)C1CN(S(=O)(=O)c2ccc3c(c2)CCC3)C1 | 686 |
| NC(=O)c1nnn(Cc2ccccc2F)c1N | 596 |
| CCOc1ccc(-c2noc(Cn3c(=O)n(-c4ccc(C)cc4)c(=O)c4sccc43)n2)cc1OC | 987 |
| Cc1ccccc1CN1CCc2nc(N3CCN(c4ccccc4F)CC3)ncc2C1 | 796 |
| O=C(Cn1cccc1-c1nc(-c2ccc(F)cc2)no1)Nc1ccc2c(c1)OCO2 | 1010 |
| Cc1ccnc(NC(=O)C2CCCN(c3ncnc4c3nc3n4CCCCC3)C2)c1 (stereo unspecified) | 643 |
| COc1ccc(S(=O)(=O)N2CCC(c3noc(-c4ccncc4)n3)C2)cc1 (stereo unspecified) | 816 |
| CC(C)(C)C(O)CCNC(=O)NCc1ccc(Cl)cc1 (stereo unspecified) | 739 |
| CC(=O)N1c2ccc(S(=O)(=O)N3CCCCCC3)cc2CC1C(=O)NCc1ccc(Cl)cc1 (stereo unspecified) | 951 |
| Cc1ccc(-c2nc(C(N)=O)c3n2CCCCC3)cc1 | 690 |
| COc1ccc(NC(=O)c2cc(C(C)C)n3nccc3n2)c(C)c1 | 1250 |
| COc1ccc2c(c1)C1(CCN(S(=O)(=O)c3ccc(F)cc3)C1)C(=O)N2 (stereo unspecified) | 820 |

| Compound | RP-LC retention time [s] |
| --- | --- |
| CCCOC(=O)C1=C(C)NC2=C(C(=O)CCC2)C1c1ccc(OC)c(OC)c1OC (stereo unspecified) | 791 |
| CC(=O)N1CCC(C2CCN(C(=O)CN3CCCC3=O)C2)CC1 (stereo unspecified) | 580 |
| CN1CC(=O)NC(c2ccccc2Br)C1=O (stereo unspecified) | 550 |
| Cc1cccc(N2CCN(c3cc(C(=O)O)c4cc(NC(=O)C(C)(C)C)ccc4n3)CC2)c1C | 774 |
| COC(=O)c1cccc(C(=O)NC2CCN(C(=O)c3cc(-c4cccs4)[nH]n3)CC2)c1 | 733 |
| COc1cccc(-c2csc(-c3nnn(-c4ccc(C)c(C)c4)c3N)n2)c1 | 1170 |
| CCc1ccc(S(=O)(=O)Nc2ccc(N3CCCN(C)CC3)cc2C(=O)O)cc1 | 650 |
| Cc1noc(-c2ccnc(-n3ncc(C(=O)N4CCOCC4)c3C)c2)n1 | 693 |
| CCCN(C)C(=O)c1c(C)oc2ccn(Cc3ccc(F)cc3)c(=O)c12 | 761 |
| CCCc1noc(-c2cccnc2-n2cnc(C(=O)Nc3cc(C)cc(C)c3)c2)n1 | 1040 |
| COCCCNC(=O)C1CCCN(S(=O)(=O)c2ccc(OC)c(OC)c2)C1 (stereo unspecified) | 699 |
| COc1ccccc1-c1noc(C2CCCN2C(=O)Cc2ccc(F)cc2)n1 (stereo unspecified) | 866 |
| O=C(NCc1cccc(C(F)(F)F)c1)c1ccc2c(c1)ncn2CCN1CCCC1 | 618 |
| Cc1ccc(S(=O)(=O)N2CCC(n3cnnc3C(C)C)CC2)c(C)c1 | 784 |
| CC(Oc1ccccc1Cl)C(=O)Nc1ccnn1Cc1cccs1 (stereo unspecified) | 913 |
| Cc1sc2ccn(Cc3ccc(F)cc3)c(=O)c2c1C(=O)NC1CCCC1 | 919 |
| Fc1ccc(F)c(CN2CC(Oc3ccc(-c4noc(-c5ccncc5)n4)cc3)C2)c1 | 726 |
| CN1CCN(c2ccccc2NC(=O)C2CCCN(c3ncnc4c3nc3n4CCCCC3)C2)CC1 (stereo unspecified) | 635 |
| Cc1nc(N2CCOCC2)cc(N2CCN(C(=O)c3ccc(Br)o3)CC2)n1 | 619 |
| COc1ccc(-c2nc(-c3ccc4c(c3)oc(=O)n4C(C)C)no2)cc1F | 1160 |
| CCS(=O)(=O)c1nc2ccc(NS(=O)(=O)c3c(C)n[nH]c3C)cc2s1 | 693 |
| CCOc1cc(=O)n2c(c1C(=O)Nc1ccc(C#N)cc1)CCCC2 | 708 |
| COc1ccc(CC(=O)Nc2ccc(-c3nc(Cn4nc(C)cc4C)c(C)o3)cc2)cc1 | 903 |

| Compound | RP-LC retention time [s] |
| --- | --- |
| Cc1cccc(C)c1NC(=O)Cn1cnc2onc(C)c2c1=O | 731 |
| Cc1nc(C)c(C(=O)Nc2nc(-c3ccc(Br)cc3)cs2)s1 | 1030 |
| O=C(O)[C@@H]1OCCN(C2CC2)[C@H]1c1ccccc1 | 545 |
| CCN1C(=O)C2(CCN(C(=O)NC(C)C)CC2)c2ccccc21 | 740 |
| COCCCNC(=O)C1c2ccccc2C(=O)N1CCc1ccc(C)cc1 (stereo unspecified) | 787 |
| O=C(CCC1CCCN(C(=O)Nc2ccccc2)C1)NCc1cccc(F)c1 (stereo unspecified) | 806 |
| CCn1cc(-c2nc(C(=O)Nc3ccc(OC)cc3)cs2)c2cccnc21 | 1000 |
| CC(C)c1cc(C(=O)Nc2cccc(C#N)c2)nc2ccnn12 | 1030 |
| Cc1cc(C)c(NC(=O)Cn2nc3c(N4CCCCCC4)nccn3c2=O)c(C)c1 | 757 |
| CCC(=O)Nc1cc2c(cc1Sc1ccc(C)cc1)n(C)c(=O)n2C | 893 |
| COC(=O)c1ccc(NS(=O)(=O)c2cc(-c3c(C)noc3NC(C)=O)ccc2OC)cc1 | 720 |
| Cc1ccc(N2CC(c3noc(-c4ccc(F)cc4Cl)n3)CC2=O)cc1 (stereo unspecified) | 1060 |
| CC(C)S(=O)(=O)c1ccc(CC(=O)Nc2cc(-c3cccs3)nn2CCO)cc1 | 701 |
| FC(F)(F)c1nc(N2CCN(C(c3ccccc3)c3ccccc3)CC2)nc2c1CCCCC2 | 559 |
| CCNC(=O)C1CCN(C(=O)Nc2ccc(NC(=O)Nc3ccc(CC)cc3)cc2)CC1 | 733 |
| Cc1ccn2c(Nc3ccc4c(c3)OCCO4)c(-c3ccccc3O)nc2c1 | 670 |
| CCn1cc(-c2nc(C(=O)NCc3cccc(C)c3)cs2)c2cccnc21 | 1060 |
| CC(C)Sc1ccc(CC(=O)N2CC(c3nc(-c4ncccn4)no3)C2)cc1 | 732 |
| Nc1cc(C2CCN(S(=O)(=O)Cc3ccc(F)cc3)CC2)no1 | 747 |
| CCc1ccc(NC(=O)Cn2c(=O)c3cc(C)nn3c3ncccc32)cc1 | 786 |
| COc1ccc(CNC(=O)c2cnc(N3CCC4(CC3)OCCO4)nc2N)c(OC)c1 | 640 |
| O=C(CSc1nc2ncccc2n2cccc12)N1CCN(c2ccccn2)CC1 | 592 |
| CNC(=O)Nc1cc(C)n(Cc2ccccc2)n1 | 738 |

| Compound | RP-LC retention time [s] |
| --- | --- |
| Cn1nc(-c2nnc(-c3ccccc3F)o2)c2c1CCN(S(=O)(=O)c1cccc(C#N)c1)C2 | 885 |
| CCOc1ccc(-c2csc3c(=O)n(Cc4ccc(Br)cc4)cnc23)cc1OCC | 1210 |
| Cc1noc(-c2ccc(OC3CN(C(=O)NC4CCCC4)C3)cc2)n1 | 801 |
| CCc1nncn1C1CCN(S(=O)(=O)c2ccc(OC)cc2)CC1 | 668 |
| O=C(C1CCN(c2cnn(Cc3ccccc3)c(=O)c2)C1)N1CCCC1 (stereo unspecified) | 683 |
| C=CCn1ccn(-c2ccc(F)c(Cl)c2)c(=O)c1=O | 652 |
| COC(=O)COC(=O)c1cn(-c2cccc(OC)c2)c(=O)c2ccccc12 | 924 |
| CCc1cc(C(=O)Nc2ccc(F)c(F)c2)no1 | 952 |
| Cc1noc(-c2cc(=O)n(CC(=O)Nc3ccc(C(C)C)cc3)c3ccccc23)n1 | 1020 |
| Cc1ccc(-c2cn3c(CC(=O)NCc4ccc(F)cc4)csc3n2)cc1C | 843 |
| CCc1nnc2cc(N3CCN(C(=O)Nc4cccc(F)c4)CC3)cnn12 | 655 |
| CNC(=O)N1CCC(C2CCN(C(=O)CN3CCCC3=O)C2)CC1 (stereo unspecified) | 585 |
| CCN1CCCC1CN(CC(=O)N1CCNCC1)S(=O)(=O)c1cc(C)c(C)cc1C (stereo unspecified) | 588 |
| O=c1ccc(-c2cccc(Cl)c2)nn1CCc1nc(-c2ccccc2)no1 | 1030 |
| CC(C)(C)c1ccc(-c2noc(CN3C(=O)COc4cc(Cl)ccc43)n2)cc1 | 1360 |
| N#Cc1ccccc1NC(=O)CSc1cc(N2CCN(c3ccccc3F)CC2)ncn1 | 1120 |
| O=C(NCc1ccc(F)cc1)NCc1cccn1Cc1cccc(F)c1 | 680 |
| CCOc1ccccc1-c1noc(Cn2c(=O)n(Cc3cccc(OC)c3)c(=O)c3sccc32)n1 | 1110 |
| CCOc1ccc(-c2noc(Cn3c(=O)n(CC(C)C)c(=O)c4ccccc43)n2)cc1OC | 1270 |
| Cn1c(=O)n([C@H]2CCN(C(=O)c3ccco3)C2)c2ncccc21 | 656 |
| O=C(CN1C(=O)C2CCCCN2C(=O)c2ccccc21)NCCN1CCCCCC1 (stereo unspecified) | 590 |
| CCc1ccc(NC(=O)NCC2CCOCC2)cc1 | 732 |
